In patent publication US11786507B2, “Methods of treating HIV-associated neurological disorders (HAND)” (priority 2020, dated 2023):

Experiments:
α7 nAChR = α7 nAChR expression in brain tissue (Western blotting, immunofluorescence); type: in vivo, mouse
Procedure: FIG. 11A-FIG. 11E show the α7 nAChR expression in the brain, cortical neurons, microglia, and astrocytes in response to Tat and PAM. Western blotting was performed in the same samples of FIG. 1D (FIG. 11A & FIG. 11B, mouse brain tissue, n=6/group, three males, and three females) and FIG. 4A (FIG. 11D & FIG. 11E, primary cells, and n=3/group) using an anti-α7 nAChR antibody. Immunofluorescent staining (FIG. 11C, scale bars 20 μm) of the brain tissues was also performed using an anti-α7 nAChR antibody. p<0.05 was considered significant and marked as *; p<0.01 and p<0.001 were both considered highly significant and marked as ** and ***, respectively.
A RIPA buffer (50 mM Tris.HCl, pH 8.0, 280 mM NaCl, 0.5% NP-40, 1% C24H39NaO4, 0.2 mM EDTA, 2 mM EGTA and 10% glycerol) supplemented with protease inhibitors (Millipore-Sigma, catalog #S8830) and phosphatase inhibitors (Millipore-Sigma, catalog #4906845001) was used to lyse the brain tissues and cultured cells with brief sonication on ice. Protein concentrations of the lysates were determined using a Bio-Rad DC protein assay kit (Bio-Rad, catalog #5000111). […]

α7−/−iTat mice = test: PAM neuroprotection in α7 nAChR knockout iTat mice; conditions: mouse, in vivo
Source text: (§1) Doxycycline (Dox)-inducible and astrocyte-specific HIV-1 Tat-transgenic mice (iTat) were generated as previously described.^38 Wild-type (Wt, C57BL/6) and α7 nAChR knockout mice (α7^−/−, B6.129S7-Chrna^7tm1Ba/J) were purchased from the Jackson Laboratory (Bar Harbor, ME). All the animal procedures were approved by the Institutional Animal Care and Use Committee. Mice were housed with a 12-hour light and 12-hour dark photoperiod and provided water and food ad libitum. α7^−/− iTat mice were generated by cross breeding iTat mice with α7^−/− mice. α7^−/− genotyping was slightly modified with the JumpStart™ Taq DNA Polymerase-based PCR (JumpStart™ Taq DNA Polymerase, Sigma, catalog #D9307). […] Mice of 10-14 weeks old with body weights of 20-35 grams were fed with Dox-containing diet (0.625 g/kg, Envigo, catalog #TD.01306) as stated.
Open Field Test (OPT) and Morris Water Maze (MWZ) were performed sequentially using a computerized video tracking system (Anymaze, Stoelting) to determine the spontaneous locomotor activity and spatial learning and memory, respectively. For OPT, each mouse was allowed to move freely around a clear acrylic chamber (40.5×40.5×30.5 cm) for 10 minutes. Travel distance and maximum speed was determined by the AnyMaze software. […]

iTat mice [1] = test: Morris Water Maze (MWZ), training stage and probe test; type: in vivo, mouse; conditions: mouse, in vivo
Source text: as §1
(§2) Open Field Test (OPT) and Morris Water Maze (MWZ) were performed sequentially using a computerized video tracking system (Anymaze, Stoelting) to determine the spontaneous locomotor activity and spatial learning and memory, respectively. For OPT, each mouse was allowed to move freely around a clear acrylic chamber (40.5×40.5×30.5 cm) for 10 minutes. Travel distance and maximum speed was determined by the AnyMaze software. For MWZ, a circle pool (1.2 m diameter) surrounded with a curtain was divided into four equal quadrants, and four signs with different shape were fixed onto the middle of each quadrant wall above the opaque water (24±1° C.). A hidden platform (1.5 cm below water surface) was put into a certain quadrant. Two stages consisting of 5-day training and probe test were carried out. In the training stage, four trials with a 15-20 minute interval were conducted in the every-day training, and for each trial mice were allowed to freely seek the platform within 90 seconds right after they were randomly put into one quadrant facing to the pool wall. If the mice found the platform within 90 seconds, 10 seconds would be added to allow them staying on the platform for memorizing, however, if failed, they would be directed toward the platform and allowed to stay on it for 15 seconds. Mice that were immobile or floating and unable to find the platform during the training stages were excluded from the experiments. Probe test was carried out on the next day following the 5-day training stage with a 60 seconds trial, and the platform was removed to prevent the mice from climbing onto it during the testing. One day after the behavioral tests, mice were euthanized and the brains were harvested.
To determine if α7 nAChR is involved in HAND, iTat mice were fed with Dox-containing food pellets for 7 days, […], and then subjected to open field test (OPT) for locomotor activity on day 14, and Morris Water Maze test (MWZ) for learning and spatial memory on day 15-20, and euthanized to harvest tissues on day 21 (FIG. 1A). Dox-containing food pellet feeding and PAM injection continued during the next 7 days of behavioral tests. To minimize the effects of injection on behavioral tests, PAM was injected 5 hours after each behavioral test.

iTat mice [2] = test: Open Field Test (OPT), locomotor activity; type: in vivo, mouse; conditions: PAM 15 mg/kg/day s.c. vs DMSO
Source text: as §1, §2
To determine if α7 nAChR is involved in HAND, iTat mice were fed with Dox-containing food pellets for 7 days, injected s.c. with a well-studied and highly specific positive allosteric modulator (PAM) PNU-120596 of α7 nAChR^73,74 […], and then subjected to open field test (OPT) for locomotor activity on day 14, and Morris Water Maze test (MWZ) for learning and spatial memory on day 15-20, and euthanized to harvest tissues on day 21 (FIG. 1A). Dox-containing food pellet feeding and PAM injection continued during the next 7 days of behavioral tests. To minimize the effects of injection on behavioral tests, PAM was injected 5 hours after each behavioral test.

COc1cc(OC)c(NC(=O)Nc2cc(C)on2)cc1Cl [PAM, 1-(5-chloro-2,4-dimethoxy-phenyl)-3-(5-methyl-isoxazol-3-yl)-urea]
α7 nAChR expression (α7 nAChR; cortex of iTat mice): increased in cortex | α7 nAChR expression (α7 nAChR; hippocampus of iTat mice): only decreased in hippocampus by both Tat expression and PAM treatment | Neuroprotective effects against locomotor, learning and memory deficits (α7−/−iTat mice): abolished | MWZ probe test latency to platform (iTat mice [1]): decreases of latency to platform in both male iTat and Wt mice | MWZ probe test platform entries, time at platform, distance to platform (iTat mice [1]): no differences | MWZ probe test time at target quadrant and distance to target quadrant (iTat mice [1]): reversed by PAM treatment with the differences in distance to target quadrant | MWZ training stage cumulative travel distance (iTat mice [1]): differences of cumulative travel times in male iTat mice on day 4 and female iTat mice on day 2 | MWZ training stage escape latency and cumulative distance (iTat mice [1]): only some improvements on male Wt mice | MWZ training stage escape latency time (iTat mice [1]): differences of escape latency time in male iTat mice on day 4 and 5 and female iTat mice on day 2 and 4 | OPT maximum speed (iTat mice [2]; Wt and iTat mice): increases of the maximum speed of male Wt mice but not other mice | OPT total travel distance (iTat mice [2]; Wt mice): some improvement of the travel distance of Wt mice | OPT total travel distance (iTat mice [2]; iTat mice): improvement of the travel distance of iTat mice
